Assay results as given in article PMC4472782, “Antibacterial Characterization of Novel Synthetic Thiazole Compounds against Methicillin-Resistant Staphylococcus pseudintermedius” (PLoS ONE, 2015).
In brackets after ≈: the same amount, converted by molar mass. Read-outs that look alike come from different tables or passages of the source.

Tests used:
[1] = Microsomal stability analysis in dog liver microsomes; assay type: in vitro ADME; conditions: pH 7.4, dog liver microsomes
Procedure: The reaction contained microsomal protein in 100 mM potassium phosphate, 2 mM NADPH, 3 mM MgCl2, pH 7.4. A control was run for each test agent omitting NADPH to detect NADPH-free degradation. At 0, 10, 20, 40, and 60 minutes, an aliquot was removed from each experimental and control reaction and mixed with an equal volume of ice-cold Stop Solution (methanol containing haloperidol, diclofenac, or other internal standard). Stopped reactions were incubated at least 10 minutes at -20°C, and an additional volume of water was subsequently added. The samples were centrifuged to remove precipitated protein, and the supernatants were analyzed by LC/MS/MS to quantitate the remaining parent. Data were converted to % remaining by dividing by the time zero concentration value. Data were then fitted to a first-order decay model to determine half-life. Intrinsic clearance was calculated from the half-life and the protein concentrations, as has been described elsewhere.

[2] = system: methicillin-sensitive Staphylococcus pseudintermedius; test: MBC determination against MSSP clinical isolates; assay type: cell-based; conditions: nine MSSP isolates
Procedure: (§1) The MBC was determined by plating 5 μL from wells on the 96-well microtiter plate (where the MIC was determined) where no growth was observed onto Tryptic soy agar (TSA) plates. […] The MBC was categorized as the concentration where ≥99% reduction in bacterial cell count was observed.

MRSP (SP3) = test: Multi-step resistance selection; assay type: cell-based, Staphylococcus pseudintermedius
Procedure: To assess the ability of MRSP to develop resistance to the thiazole compounds, a multi-step resistance selection experiment was performed, as described elsewhere. The broth microdilution method for MIC determination against a clinical isolate of MRSP (SP3) was repeated for ten passages over a period of ten days. The initial inoculum was prepared to a McFarland standard of 0.5. The solution was subsequently diluted 1:300 in MHB to reach a starting inoculum of 1 × 10^5 CFU/mL. For each subsequent passage, the inoculum for the MIC determination was adjusted to a final density of approximately 5 × 10^5 CFU/mL using the contents of a well containing a subinhibitory concentration of the compound (where bacterial growth was observed from the previous passage). Bacteria were then transferred to a new 96-well microtiter plate.

[3] = human liver microsomes; cited from earlier work
MRSP SP3 [4] = test: Time-kill analysis against MRSP; assay type: cell-based, Staphylococcus pseudintermedius; conditions: 4 × MIC, MRSP SP3, 24 hour incubation at 37°C
Procedure: MRSP SP3 cells in late logarithmic growth phase were diluted to ~1 × 10^6 CFU/mL and exposed to concentrations equivalent to 4 × MIC (in triplicate) of thiazole compounds 1–6 and rifampicin in MHB. Samples (20 μL) were collected after 0, 2, 4, 6, 8, 10, 12, and 24 hours of incubation at 37°C and subsequently serially diluted in PBS. Bacteria were then transferred to TSA plates and incubated at 37°C for 20–24 hours before viable CFU/mL values were determined.

[5] = system: methicillin-resistant Staphylococcus pseudintermedius; test: MIC by broth microdilution against MRSP clinical isolates; assay type: cell-based; conditions: six MRSP isolates, triplicate
Procedure: (§2) Fifteen isolates of S. pseudintermedius (nine MSSP and six MRSP), identified at the Indiana Animal Disease Diagnostic Laboratory from specimens collected from dogs admitted to the small animal teaching hospital at Purdue University, were included in the study. The specimens were not collected specifically for this research study but were obtained from patients admitted to the hospital for treatment. Clinical specimens were inoculated onto 5% sheep blood agar and incubated at 35°C for 18–24 hours. Standard methods including examination of colony morphology and hemolysis and biochemical tests such as tube coagulase, Voges-Proskauer (VP) and fermentation tests for maltose, trehalose and lactose, were used in addition to matrix-assisted laser desorption ionization time of flight mass spectrometry to identify isolates. Antimicrobial susceptibility was determined by broth microdilution using the SensiTitre (Thermofisher Scientific).
(§3) Bacteria were prepared in phosphate-buffered saline (PBS) until a McFarland standard of 0.5 was achieved. The solution was subsequently diluted 1:300 in Mueller-Hinton broth (MHB) to reach a starting inoculum of 1 × 10^5 colony-forming units (CFU/mL). Bacteria were then transferred to a 96-well microtiter plate. Thiazole compounds and antibiotics were added (in triplicate) to wells in the first row of the microtiter plate and then serially diluted along the vertical axis. […] The MIC was categorized as the concentration where there was no visible growth of bacteria observed.

MRSP SP3 [6] = test: Checkerboard assay of thiazole compounds with oxacillin; assay type: cell-based, Staphylococcus pseudintermedius
Procedure: The relationship between the thiazole compounds and oxacillin was assessed via a standard checkerboard assay. Bacteria (MRSP SP3) equivalent to a McFarland standard of 0.5 were prepared in PBS. The bacteria were next diluted in MHB to achieve a starting cell density of 1 × 10^5 CFU/mL. MHB was transferred to all wells of a 96-well microtiter plate. […] Oxacillin was serially diluted along the abscissa of the microtiter plate while the thiazole compound was serially diluted along the ordinate. The plate was incubated for 22–24 hours at 37°C. The MIC of the test compound in combination with oxacillin was determined as the lowest concentration of each compound/antibiotic where no visible growth of bacteria was observed. The fractional inhibitory concentration index (ƩFIC) was calculated for each combination as described previously. A synergistic relationship was classified as an FIC index less than or equal to 0.5. […]

[7] = system: methicillin-sensitive Staphylococcus pseudintermedius; test: MIC by broth microdilution against MSSP clinical isolates; assay type: cell-based; conditions: nine MSSP isolates, triplicate
Procedure: as §2, §3

[8] = system: methicillin-resistant Staphylococcus pseudintermedius; test: MBC determination against MRSP clinical isolates; assay type: cell-based; conditions: six MRSP isolates
Procedure: as §1

Q: For `CCCCC#Cc1ccc(-c2nc(C)c(/C(C)=N/NC(=N)N)s2)cc1` [Compound 3], which microsomal CLint ([1]; NADPH omitted, read-out: NADPH-free CLint) is on record?
A: 6.6 µL/min/mg

Q: What about the half-life ([1]; NADPH omitted, read-out: NADPH-free T1/2) of the same compound?
A: 5.85 h

Q: What about the microsomal CLint ([1]; with NADPH, duplicate, read-out: NADPH-dependent CLint) of the same compound?
A: 18.7 µL/min/mg

Q: What about the half-life ([1]; with NADPH, duplicate, read-out: NADPH-dependent T1/2) of the same compound?
A: 2.05 h

Q: And the MBC ([2]; Staphylococcus pseudintermedius, lowest concentration that killed 50% of isolates, read-out: MBC50)?
A: 0.71 µg/mL (≈ 2.01 µM)

Q: And the “MBC Range” value [2]?
A: 0.18 to 1.41 µg/mL

Q: What about the “development of resistance by MRSP” value (MRSP (SP3); MRSP SP3, ten passages, resistance = greater than four-fold increase in initial MIC) of the same compound?
A: not able to develop resistance

Q: And the “shift in the MIC over ten passages” value (MRSP (SP3); MRSP SP3, ten serial passages)?
A: no change

Q: What about the MIC (MRSP (SP3); Staphylococcus pseudintermedius, read-out: initial MIC) of the same compound?
A: 1.41 µg/mL (≈ 3.99 µM)

Q: What about the clearance rate [3] of the same compound?
A: 3.7 µL/min/mg

Q: And the half-life [3]?
A: more than 240 minutes

Q: What about the “time required to completely eliminate MRSP” value (MRSP SP3 [4]) of the same compound?
A: within two hours

Q: And the MIC50 ([5]; Staphylococcus pseudintermedius, read-out: MIC50)?
A: 0.48 µg/mL (≈ 1.36 µM)

Q: What about the “MIC Range” value [5] of the same compound?
A: 0.18 to 1.41 µg/mL

Q: And the relationship with oxacillin (MRSP SP3 [6]; checkerboard assay)?
A: synergistic

Q: What about the ƩFIC (MRSP SP3 [6]; combination with oxacillin, ≤ 0.5 synergistic, > 0.5 to ≤ 4.0 indifference, > 4 antagonistic) of the same compound?
A: 0.38

Q: And the MIC50 ([7]; lowest concentration inhibiting growth in 50% of isolates)?
A: 0.71 µg/mL (≈ 2.01 µM)

Q: What about the MIC ([7]; read-out: MIC Range) of the same compound?
A: 0.18 to 0.94 µg/mL (≈ 0.509 to 2.66 µM)

Q: What about the MBC ([8]; Staphylococcus pseudintermedius, read-out: MBC50) of the same compound?
A: 0.71 µg/mL (≈ 2.01 µM)

Q: What about the “MBC Range” value [8] of the same compound?
A: 0.18 to 1.41 µg/mL
